Reference: patent publication US20110229571A1, “Pharmaceutical Compositions Comprising a Selective I1 Imidazoline Receptor Agonist and an Angiotensin II Receptor Blocker” (Abbott Products GmbH, priority 2003, published 2011)

Assays:
[1] = tested on: 2K1C (two-kidney one-clip) hypertensive rats; assay: Blood pressure and heart rate (tail cuff) of two-kidney one-clip renal hypertensive rats after oral treatment; format: in vivo, rat; conditions: for diastolic blood pressure (DBP) / mean blood pressure (MBP) / systolic blood pressure (SBP) / heart rate: Mox 1 mg/kg, Epro 3 mg/kg or both; for diastolic blood pressure (DBP) / mean blood pressure (MBP) / systolic blood pressure (SBP): mean ± SE of 12 animals; for heart rate: n 12; for maximal decrease in the diastolic blood pressure / maximal decrease in the systolic blood pressure: maximal effect 2 hours after oral administration, moxonidine 1 mg/kg or eprosartan 3 mg/kg; for effect on blood pressure (in words): oral, moxonidine 1 mg/kg, eprosartan 3 mg/kg or both
Source text: The “two-kidney one-clip” technique results in renal ischemia and in the development of hypertension. In the rat, this technique produces chronic changes, similar to those in human beings with unilateral renal artery stenosis. 2K1C rats represent a pressure overload model of hypertension, characterized by the activation of the renin-angiotensin aldosterone system (RAAS) and peripheral vasoconstriction. This model is widely used as a high renin model of hypertension for the evaluation of angiotensin converting enzyme (ACE) inhibitors and angiotensin receptor antagonists (ARBs). Animals: Male Sprague-Dawley CFY rats were used. Animals were fed commercial laboratory rat food pellet and allowed to drink tap water ad libitum throughout the experiments. Two-kidney one-clip hypertension: Under ether anesthesia an incision was made on the right side of the dorsalvertebrocostal angle. After light exterioration of the right kidney a silver clip was placed on the renal artery, close to its origin from the aorta. The left kidney was not disturbed. Measurement of blood pressure and heart rate: Blood pressure and heart rate were measured by the tail cuff method (Model 229, IITC Inc., CA, USA) from the 1st week after clipping the renal artery, once a week for 6 weeks. At the time of blood pressure measurements the animals were minimally warmed to an ambient temperature of 29° C. using a thermostated warming chamber. Experimental protocol: Animals developing stable hypertension during the 6-week-study period were used for the drug treatments. 12 animals with established hypertension were used for each treatment group as follows: • Vehicle • Moxonidine 1 mg/kg • Eprosartan 3 mg/kg • Moxonidine 1 mg/kg+Eprosartan 3 mg/kg The animals were treated orally and the blood pressure was measured 30 min, 1 h, 2 h and 4 hours there after. Different treatments were applied randomly during the day. Statistical analysis: Parameters were expressed as mean±standard error of the mean (SE) and after analysis of variance were compared by means of the modified ‘t’-statistical method of Wallenstein et al. [Wallenstein S et al. (1980) Circ. Res. 47:1-9].

[2] = tested on: Zucker rats; assay: Oral glucose tolerance test in Zucker rats after 3 weeks of treatment; format: in vivo, rat
Experimental: The effect of a combined administration of Moxonidine as an example for a selective Imidazoline I1 receptor agonist and Eprosartan as an example for an Angiotensin II At1 receptor antagonist was analyzed by measuring their influence on plasma glucose level in “Zucker rats”. The “Zucker rat” is a model of impaired glucose tolerance and is widely used to analyze compound effects on glucose tolerance. Animals: Male Zucker rats (HsdOla fa/fa) from Harlan were used in the experiments. The animals were fed commercial lab chow and had unlimited access to tap water throughout the experiment. Experimental protocol: Animals were treated for 3 weeks with either vehicle or the active compounds. Moxonidine was applied via the drinking water. Eprosartan was administered daily into the stomach via a cannula. Ten animals were used in each of the following treatment groups: • Vehicle • Moxonidine 1 mg/kg • Moxonidine 1 mg/kg+Eprosartan 3 mg/kg • Moxonidine 1 mg/kg+Eprosartan 30 mg/kg • Moxonidine 1 mg/kg+Eprosartan 100 mg/kg At the end of the drug treatment period the animals were subjected to an oral glucose tolerance test. Animals were given a solution containing 2 g glucose via a cannula into the stomach. Blood samples were drawn before and at 30, 60, 90, and 120 minutes after the glucose load by tail vein cannulation and analyzed for plasma glucose levels. Statistical analysis: Parameters were expressed as mean±standard error of the mean (SE) and after analysis of variance were compared by means of T-Test.

[3] = 30 min after oral administration

SMILES | diastolic blood pressure (DBP) [1, 3] | mean blood pressure (MBP) [1, 3] | systolic blood pressure (SBP) [1, 3] | heart rate [1, 3] | diastolic blood pressure (DBP) ([1]; 1 h after oral administration) | mean blood pressure (MBP) ([1]; 1 h after oral administration) | systolic blood pressure (SBP) ([1]; 1 h after oral administration) | heart rate ([1]; 1 h after oral administration) | diastolic blood pressure (DBP) ([1]; 2 h after oral administration) | mean blood pressure (MBP) ([1]; 2 h after oral administration) | systolic blood pressure (SBP) ([1]; 2 h after oral administration) | heart rate ([1]; 2 h after oral administration) | diastolic blood pressure (DBP) ([1]; 4 h after oral administration) | mean blood pressure (MBP) ([1]; 4 h after oral administration) | systolic blood pressure (SBP) ([1]; 4 h after oral administration) | heart rate ([1]; 4 h after oral administration) | maximal decrease in the diastolic blood pressure [1] | maximal decrease in the systolic blood pressure [1] | effect on blood pressure (in words) [1] | other results
CCCCc1ncc(/C=C(\Cc2cccs2)C(=O)O)n1Cc1ccc(C(=O)O)cc1 [Eprosartan] | 111 ± 2.8 mmHg | 117 ± 2.8 mmHg | 131 ± 2.8 mmHg | 370 ± 6.9 beats/min | 109 ± 2.3 mmHg | 116 ± 2.5 mmHg | 131 ± 3.1 mmHg | 375 ± 7.4 beats/min | 98 ± 4.8 mmHg | 105 ± 4.6 mmHg | 119 ± 4.5 mmHg | 378 ± 4.3 beats/min | 106 ± 6.6 mmHg | 112 ± 6.6 mmHg | 125 ± 6.1 mmHg | 376 ± 5.2 beats/min | 21% | 19% | significantly decreased the blood pressure | –
COc1nc(C)nc(Cl)c1NC1=NCCN1 [Moxonidine, 4-Chloro-5-[(4,5-dihydro-1H-imidazol-2-yl)-amino]-6-methoxy-2-methylpyrimidine] | 118 ± 3.1 mmHg | 124 ± 3.2 mmHg | 136 ± 3.6 mmHg | 383 ± 5.3 beats/min | 110 ± 3.3 mmHg | 117 ± 2.6 mmHg | 130 ± 2.1 mmHg | 376 ± 6.7 beats/min | 100 ± 4.8 mmHg | 107 ± 4.2 mmHg | 122 ± 3.5 mmHg | 368 ± 5.9 beats/min | 109 ± 3.8 mmHg | 116 ± 3.5 mmHg | 129 ± 3.1 mmHg | 384 ± 6.0 beats/min | 19% | 16% | significantly decreased the blood pressure | plasma glucose level ([2]; 0 min (before glucose challenge), 1 mg/kg Mox, mean ± SE of 10 animals): 97 ± 6 mg/dL; plasma glucose AUC (area under the curve) ([2]; 0-120 min after glucose challenge, 1 mg/kg Mox): 24960 ± 1268 mg·min/dL; plasma glucose level ([2]; 30 min after glucose challenge, 1 mg/kg Mox): 240 ± 15 mg/dL; plasma glucose level ([2]; 60 min after glucose challenge, 1 mg/kg Mox): 211 ± 15 mg/dL; plasma glucose level ([2]; 90 min after glucose challenge, 1 mg/kg Mox): 221 ± 11 mg/dL; plasma glucose level ([2]; 120 min after glucose challenge, 1 mg/kg Mox): 224 ± 14 mg/dL; effect on plasma glucose levels after oral glucose challenge (in words) ([2]; Moxonidine 1 mg/kg alone or with Eprosartan 3, 30, 100 mg/kg): significant reduction in plasma glucose levels at 60 and 90 minutes
